The source of these data is patent US20240132431A1, “METHOD FOR ALKYLATING ACIDIC FUNCTIONAL GROUP” (Chugai Seiyaku Kabushiki Kaisha, priority 2021, published 2024).

The target in the test is T1, Bcl-2 protein (Recombinant Human Bcl-2 Protein) (Homo sapiens, UniProt P10415).
T1 construct: purchased Novus NBP2-34889
The experiment in a line: Binding evaluation of mixture library compounds to Bcl-2 using AS-MS (affinity selection mass spectrometry). To be noted: for ASMS ratio (%) n = 1 / ASMS ratio (%) n = 2: ASMS Ratio(%)=(A−C)/B×100; for ASMS ratio (%) n = 1: replicate n = 1; for ASMS ratio (%) n = 2: replicate n = 2. A digest of the protocol: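 ASMS Ratio (%) was calculated as (A−C)/B×100, where A is the protein sample after SEC, B the protein-free sample without SEC and C the protein-free sample after SEC. Each compound was at […] in a 1200-member pool with 20 μM Bcl-2, incubated 1 h at 23° C.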

The mark [1] stands for this setting: AS-MS, mixture of 1200 compounds, Bcl-2.
[2] abbreviates: AS-MS on the mixture of 1200 library compounds.

T1 sequence (P10415 whole entry): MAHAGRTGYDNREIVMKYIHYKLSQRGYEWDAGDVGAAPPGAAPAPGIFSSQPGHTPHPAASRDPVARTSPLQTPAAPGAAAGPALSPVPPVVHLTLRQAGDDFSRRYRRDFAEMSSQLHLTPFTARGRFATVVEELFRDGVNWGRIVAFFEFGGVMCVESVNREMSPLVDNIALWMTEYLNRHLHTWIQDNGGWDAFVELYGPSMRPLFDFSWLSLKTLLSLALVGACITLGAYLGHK

Consider `CCOc1cncc(-c2cnn(-c3cc(C(=O)N4CCN(c5ccc(C(=O)NCC(F)(F)F)nn5)CC4)cc(C(F)(F)F)c3)c2)c1` [B1K022-01, 6-[4-[3-[4-(5-Ethoxypyridin-3-yl)pyrazol-1-yl]-5-(trifluoromethyl)benzoyl]piperazin-1-yl]-N-(2,2,2-trifluoroethyl)pyridazine-3-carboxamide], for which, under setting [1], the “ASMS ratio (%) n = 1” value is 1.4% and the “ASMS ratio (%) n = 2” value is 0.1%.

On to `CCOc1cccc(C#Cc2ccccc2C(=O)N2CCN(c3ccc(C(=O)NS(=O)(=O)C(C)(C)C)nn3)CC2)c1` [B2L007-01, N-tert-Butylsulfonyl-6-[4-[2-[2-(3-ethoxyphenyl)ethynyl]benzoyl]piperazin-1-yl]pyridazine-3-carboxamide], for which the “ASMS ratio (%)” value by setting is: (n = 1) 0.0%; (n = 2) −1.0%.

With `CCOc1cccc(-c2ccc(C(=O)N3CCN(c4ccc(C(=O)Nc5ccc(OC)cc5)cc4)CC3)cc2C)c1` [B1O025-01, 4-[4-[4-(3-Ethoxyphenyl)-3-methylbenzoyl]piperazin-1-yl]-N-(4-methoxyphenyl)benzamide], under setting [2], the “ASMS ratio (%) n = 1” value was −0.4% and the “ASMS ratio (%) n = 2” value is recorded as −4.5%.

For `CCOc1cncc(-c2ccc(C(=O)N3CCN(c4ccc(C(=O)NCC(F)(F)F)cc4)CC3)cc2C)c1` [B1K026-01, 4-[4-[4-(5-Ethoxypyridin-3-yl)-3-methylbenzoyl]piperazin-1-yl]-N-(2,2,2-trifluoroethyl)benzamide], under setting [1], the “ASMS ratio (%) n = 1” value is 4.2% and the “ASMS ratio (%) n = 2” value is 0.2%.

On to `CCOc1cncc(C#Cc2cncc(C(=O)N3CCN(c4ccc(C(=O)Nc5ccc(OC)cc5)cc4)CC3)c2)c1` [B1O032-01, 4-[4-[5-[2-(5-Ethoxypyridin-3-yl)ethynyl]pyridine-3-carbonyl]piperazin-1-yl]-N-(4-methoxyphenyl)benzamide], for which, under setting [2], the “ASMS ratio (%) n = 1” value amounted to 4.5% and the “ASMS ratio (%) n = 2” value worked out at 0.9%.

As for “4-[4-[4-(3-Ethoxyphenyl)-3-methylbenzoyl]piperazin-1-yl]-N-propylbenzamide [B1M038-01]”, under setting [1], the “ASMS ratio (%) n = 1” value is 0.0% and the “ASMS ratio (%) n = 2” value was determined as 1.7%.

With `CCOc1cncc(-c2cnn(-c3cc(C(=O)N4CCN(c5ccc(C(=O)NS(=O)(=O)CCC(F)(F)F)nn5)CC4)cc(C(F)(F)F)c3)c2)c1` [B2N022-01, 6-[4-[3-[4-(5-Ethoxypyridin-3-yl)pyrazol-1-yl]-5-(trifluoromethyl)benzoyl]piperazin-1-yl]-N-(3,3,3-trifluoropropylsulfonyl)pyridazine-3-carboxamide], the “ASMS ratio (%)” value (n = 1) worked out at 0.0% and the “ASMS ratio (%)” value (n = 2) came out at 0.0%.

Consider `CCOc1cccc(-c2cc(C(=O)N3CCN(c4ccc(C(=O)NCC56CC7CC(CC(C7)C5)C6)cc4)CC3)cc(C(C)(C)C)c2)c1` [B1A037-01, N-(1-Adamantylmethyl)-4-[4-[3-tert-butyl-5-(3-ethoxyphenyl)benzoyl]piperazin-1-yl]benzamide], for which, under setting [1], the “ASMS ratio (%) n = 1” value is 3.3% and the “ASMS ratio (%) n = 2” value is given as −5.0%.

Consider `CCOc1cccc(-c2ccc(C(=O)N3CCN(c4ccc(C(=O)N(CC)CC)nn4)CC3)c3ccccc23)c1` [B4J013-01, 6-[4-[4-(3-Ethoxyphenyl)naphthalene-1-carbonyl]piperazin-1-yl]-N,N-diethylpyridazine-3-carboxamide], for which, under setting [2], the “ASMS ratio (%) n = 1” value is 2.0% and the “ASMS ratio (%) n = 2” value worked out at 3.7%.

Consider `CCOc1cccc(-c2ccc(C(=O)N3CCN(c4ccc(C(=O)NS(=O)(=O)c5ccc(NCCSc6ccccc6)c(C(F)(F)F)c5)cc4)CC3)cc2C)c1` [B2R025-01, 4-[4-[4-(3-Ethoxyphenyl)-3-methylbenzoyl]piperazin-1-yl]-N-[4-(2-phenylsulfanylethylamino)-3-(trifluoromethyl)phenyl]sulfonylbenzamide], for which the “ASMS ratio (%)” value (n = 1) is recorded as −1.0% and the “ASMS ratio (%)” value (n = 2) was −2.4%.

Consider `CCOc1cncc(-c2cc(CN3CCN(c4ccc(C(=O)NS(=O)(=O)c5ccc(NCCSc6ccccc6)c(C(F)(F)F)c5)cc4)CC3)cc(C(F)(F)F)c2)c1` [B2R062-01, 4-[4-[[3-(5-Ethoxypyridin-3-yl)-5-(trifluoromethyl)phenyl]methyl]piperazin-1-yl]-N-[4-(2-phenylsulfanylethylamino)-3-(trifluoromethyl)phenyl]sulfonylbenzamide], for which the “ASMS ratio (%)” value was determined as 0.0% (n = 1) and 0.0% (n = 2).

As to `CCOc1cncc(-c2ccc(C(=O)N3CCN(c4ccc(C(=O)NS(=O)(=O)CC56CC7CC(CC(C7)C5)C6)cc4)CC3)cc2C)c1` [B2A026-01, N-(1-Adamantylmethylsulfonyl)-4-[4-[4-(5-ethoxypyridin-3-yl)-3-methylbenzoyl]piperazin-1-yl]benzamide], where the note is “AS-MS, mixture library, Bcl-2”, the “ASMS ratio (%) n = 1” value came out at 0.8% and the “ASMS ratio (%) n = 2” value is −2.1%.

Turning to `CCOc1cncc(C#Cc2ccccc2C(=O)N2CCN(c3ccc(C(=O)NCC45CC6CC(CC(C6)C4)C5)nn3)CC2)c1` [B1A008-01, N-(1-Adamantylmethyl)-6-[4-[2-[2-(5-ethoxypyridin-3-yl)ethynyl]benzoyl]piperazin-1-yl]pyridazine-3-carboxamide], under setting [1], the “ASMS ratio (%) n = 1” value is given as 3.0% and the “ASMS ratio (%) n = 2” value amounted to 0.0%.

`CCCNC(=O)c1ccc(N2CCN(Cc3cc(-c4cccc(OCC)c4)cc(C(F)(F)F)c3)CC2)nn1` [B1M027-01]: under setting [1], the “ASMS ratio (%) n = 1” value amounted to 1.0% and the “ASMS ratio (%) n = 2” value came to 0.4%.

As to `CCOc1cccc(-c2ccccc2CN2CCN(c3ccc(C(=O)NCC45CC6CC(CC(C6)C4)C5)nn3)CC2)c1` [B1A071-01, N-(1-Adamantylmethyl)-6-[4-[[2-(3-ethoxyphenyl)phenyl]methyl]piperazin-1-yl]pyridazine-3-carboxamide], under setting [1], the “ASMS ratio (%) n = 1” value is on record as −0.3% and the “ASMS ratio (%) n = 2” value is listed as −3.3%.

As to `CCOc1cccc(-c2csc(CN3CCN(c4ccc(C(=O)NS(=O)(=O)C(C)(C)C)cc4)CC3)c2)c1` [B2L067-01, N-tert-Butylsulfonyl-4-[4-[[4-(3-ethoxyphenyl)thiophen-2-yl]methyl]piperazin-1-yl]benzamide], the “ASMS ratio (%)” value runs as follows: (n = 1) 0.0%; (n = 2) 0.0%.

In the case of `CCOc1cncc(-c2cc(C(=O)N3CCN(c4ccc(C(=O)NCC56CC7CC(CC(C7)C5)C6)cc4)CC3)cc(C(C)(C)C)c2)c1` [B1A038-01, N-(1-Adamantylmethyl)-4-[4-[3-tert-butyl-5-(5-ethoxypyridin-3-yl)benzoyl]piperazin-1-yl]benzamide], under setting [1], the “ASMS ratio (%) n = 1” value is 6.5% and the “ASMS ratio (%) n = 2” value is −6.4%.

Take `CCOc1cccc(C#Cc2ccccc2C(=O)N2CCN(c3ccc(C(=O)NS(=O)(=O)c4ccc(NCCSc5ccccc5)c(C(F)(F)F)c4)nn3)CC2)c1` [B2R007-01, 6-[4-[2-[2-(3-Ethoxyphenyl)ethynyl]benzoyl]piperazin-1-yl]-N-[4-(2-phenylsulfanylethylamino)-3-(trifluoromethyl)phenyl]sulfonylpyridazine-3-carboxamide]: for the setting “n = 1”, the “ASMS ratio (%)” value was 0.0%.

Regarding `CCOc1cccc(-c2cc(CN3CCN(c4ccc(C(=O)NS(=O)(=O)c5ccc(NCCSc6ccccc6)c([N+](=O)[O-])c5)cc4)CC3)cc(OC(C)C)c2)c1` [B2Q057-01, 4-[4-[[3-(3-Ethoxyphenyl)-5-propan-2-yloxyphenyl]methyl]piperazin-1-yl]-N-[3-nitro-4-(2-phenylsulfanylethylamino)phenyl]sulfonylbenzamide], for the setting “AS-MS, mixture library, Bcl-2”, the “ASMS ratio (%) n = 1” value came out at 17.5% and the “ASMS ratio (%) n = 2” value is 4.4%.

`CCOc1cccc(-c2cc(CN3CCN(c4ccc(C(=O)NS(C)(=O)=O)nn4)CC3)cc(OCC)c2)c1` [B2I081-01]: the “ASMS ratio (%)” value is 0.0% (n = 1) and 0.0% (n = 2).

As for `CCOc1cccc(C#Cc2ccccc2C(=O)N2CCN(c3ccc(C(=O)NS(=O)(=O)CCC(F)(F)F)nn3)CC2)c1` [B2N007-01, 6-[4-[2-[2-(3-Ethoxyphenyl)ethynyl]benzoyl]piperazin-1-yl]-N-(3,3,3-trifluoropropylsulfonyl)pyridazine-3-carboxamide], the “ASMS ratio (%)” value by setting is: (n = 1) 0.0%; (n = 2) 0.0%.

For `CCOc1cccc(-c2cnn(-c3cc(C(=O)N4CCN(c5ccc(C(=O)N(C)CC67CC8CC(CC(C8)C6)C7)cc5)CC4)cc(C(F)(F)F)c3)c2)c1` [B3A043-01, N-(1-Adamantylmethyl)-4-[4-[3-[4-(3-ethoxyphenyl)pyrazol-1-yl]-5-(trifluoromethyl)benzoyl]piperazin-1-yl]-N-methylbenzamide], under setting [2], the “ASMS ratio (%) n = 1” value turned out to be 0.5% and the “ASMS ratio (%) n = 2” value is −0.3%.

In the case of `CCOc1cccc(C#Cc2cc(C(=O)N3CCN(c4ccc(C(=O)NCC(F)(F)F)nn4)CC3)cc(C(F)(F)F)c2)c1` [B1K019-01, 6-[4-[3-[2-(3-Ethoxyphenyl)ethynyl]-5-(trifluoromethyl)benzoyl]piperazin-1-yl]-N-(2,2,2-trifluoroethyl)pyridazine-3-carboxamide], under setting [1], the “ASMS ratio (%) n = 1” value is given as 0.0% and the “ASMS ratio (%) n = 2” value amounted to 0.0%.

In the case of `CCOc1cncc(-c2cnn(-c3cc(C(=O)N4CCN(c5ccc(C(=O)NS(=O)(=O)c6ccc(NCCSc7ccccc7)c([N+](=O)[O-])c6)nn5)CC4)cc(C(F)(F)F)c3)c2)c1` [B2Q022-01, 6-[4-[3-[4-(5-Ethoxypyridin-3-yl)pyrazol-1-yl]-5-(trifluoromethyl)benzoyl]piperazin-1-yl]-N-[3-nitro-4-(2-phenylsulfanylethylamino)phenyl]sulfonylpyridazine-3-carboxamide], for the setting “AS-MS, mixture library, Bcl-2”, the “ASMS ratio (%) n = 1” value came to 13.8% and the “ASMS ratio (%) n = 2” value was found to be 23.6%.
